Test results published in BindingDB's records for doi:10.1016/j.bmcl.2018.12.057 (Indian Institute of Technology Madras, 2019).

Molecular target: Luciferin 4-monooxygenase (Photinus pyralis, UniProt P08659)
Assay: Activation of firefly luciferase activity expressed in HEK293T cells after 6 hrs by luminescence assay

Sequence of Luciferin 4-monooxygenase (P08659 whole entry): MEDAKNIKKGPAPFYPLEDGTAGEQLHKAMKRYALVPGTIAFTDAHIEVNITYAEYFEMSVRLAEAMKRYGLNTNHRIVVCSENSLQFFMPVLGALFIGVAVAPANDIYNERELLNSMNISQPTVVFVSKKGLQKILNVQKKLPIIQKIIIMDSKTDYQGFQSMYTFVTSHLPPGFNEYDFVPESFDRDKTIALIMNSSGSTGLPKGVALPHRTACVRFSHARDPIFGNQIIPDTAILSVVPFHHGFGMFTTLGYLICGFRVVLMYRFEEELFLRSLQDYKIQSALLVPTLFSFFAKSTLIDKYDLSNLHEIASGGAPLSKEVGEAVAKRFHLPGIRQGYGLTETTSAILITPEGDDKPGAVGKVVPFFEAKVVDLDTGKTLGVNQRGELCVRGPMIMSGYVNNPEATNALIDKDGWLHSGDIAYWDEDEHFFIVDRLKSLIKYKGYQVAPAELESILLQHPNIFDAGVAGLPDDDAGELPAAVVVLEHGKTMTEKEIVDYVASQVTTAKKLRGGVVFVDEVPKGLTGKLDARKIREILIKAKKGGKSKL

Compound: CCCCCCCCCCCCCC(=O)O[C@@H]1[C@@H](C)[C@@]2(O)[C@@H](C=C(CO)C[C@]3(O)C(=O)C(C)=C[C@@H]23)[C@@H]2C(C)(C)[C@]12OC(C)=O [phorbol 13-acetate 12-myristate]
- EC50: 10 nM
